How the values were obtained:
Conditions in all cases: 72 h
Vero E6 [1] = experiment: cell viability relative to DMSO; higher = less toxic
Calu-3 [2] = experiment: as above
U2OS [3] = experiment: as above
Vero E6 [4] = experiment: drug sensitivity score (DSS) for viability; higher = more toxic; extreme values may be limits of the assay
Calu-3 [5] = experiment: as above
U2OS [6] = experiment: as above
Vero E6 [7] = experiment: relative viability EC50 (midpoint between 100% and the lowest measured viability); higher = less toxic
Calu-3 [8] = experiment: as above
U2OS [9] = experiment: as above
Caco-2 [10] = experiment: cell viability relative to DMSO; higher = less toxic
HepG2 [11] = experiment: as above
Caco-2 [12] = experiment: drug sensitivity score (DSS) for viability; higher = more toxic; extreme values may be limits of the assay
HepG2 [13] = experiment: as above
HepG2 [14] = experiment: relative viability EC50 (midpoint between 100% and the lowest measured viability); higher = less toxic

Row | SMILES | cell viability (Vero E6 [1]; 1 nM) | cell viability (Vero E6 [1]; 10 nM) | cell viability (Vero E6 [1]; 100 nM) | cell viability (Vero E6 [1]; 1000 nM) | cell viability (Vero E6 [1]; 10000 nM) | cell viability (Calu-3 [2]; 1 nM) | cell viability (Calu-3 [2]; 10 nM) | cell viability (Calu-3 [2]; 100 nM) | cell viability (Calu-3 [2]; 1000 nM) | cell viability (Calu-3 [2]; 10000 nM) | cell viability (U2OS [3]; 1 nM) | cell viability (U2OS [3]; 10 nM) | cell viability (U2OS [3]; 100 nM) | cell viability (U2OS [3]; 1000 nM) | cell viability (U2OS [3]; 10000 nM) | drug sensitivity score (Vero E6 [4]) | drug sensitivity score (Calu-3 [5]) | drug sensitivity score (U2OS [6]) | relative viability EC50 (Vero E6 [7]) | relative viability EC50 (Calu-3 [8]) | relative viability EC50 (U2OS [9]) | cell viability (Caco-2 [10]; 1 nM) | cell viability (Caco-2 [10]; 10 nM) | cell viability (Caco-2 [10]; 100 nM) | cell viability (Caco-2 [10]; 1000 nM) | cell viability (Caco-2 [10]; 10000 nM) | cell viability (HepG2 [11]; 1 nM) | cell viability (HepG2 [11]; 10 nM) | cell viability (HepG2 [11]; 100 nM) | cell viability (HepG2 [11]; 1000 nM) | cell viability (HepG2 [11]; 10000 nM) | drug sensitivity score (Caco-2 [12]) | drug sensitivity score (HepG2 [13]) | relative viability EC50 (HepG2 [14])
1 | Cn1c(=O)c2[nH]cnc2n(C)c1=O [aminophylline] | 99.5% | 100% | 94.9% | 93.1% | 112% | 99.2% | 114% | 100% | 108% | 114% | 99.1% | 98.9% | 94.9% | 101% | 103% | 0 | 0 | 0 | > 10 µM | > 10 µM | > 10 µM |  |  |  |  |  |  |  |  |  |  |  |  | 
2 | COc1cc([C@@H]2c3cc4c(cc3[C@@H](O[C@@H]3O[C@@H]5CO[C@@H](C)O[C@H]5[C@H](O)[C@H]3O)[C@H]3COC(=O)[C@H]23)OCO4)cc(OC)c1O [etoposide] | 104% | 105% | 103% | 98.7% | 80.2% | 83.1% | 92.5% | 90.4% | 81.1% | 40.7% | 100% | 104% | 99.9% | 94.5% | 46.1% | 0.7 | 5.3 | 3.8 | > 10 µM | 1.52 µM | 2.32 µM | 93.5% | 97.1% | 92.2% | 97.7% | 54.2% | 111% | 85.2% | 96.3% | 65.6% | 43.1% | 2.7 | 7.2 | 0.701 µM
3 | CCCCCCOc1ccccc1C(N)=O [exalamide] | 110% | 105% | 102% | 105% | 86.9% | 106% | 115% | 107% | 98.3% | 113% | 95.6% | 92.7% | 101% | 93.1% | 94.3% | 0 | 0 | 0 | > 10 µM | > 10 µM | > 10 µM |  |  |  |  |  | 110% | 96.1% | 95.9% | 109% | 90% |  | 0 | > 10 µM
4 | CC1=C(/C=C/C(C)=C/C=C/C(C)=C/C(=O)Nc2ccc(O)cc2)C(C)(C)CCC1 [fenretinide] | 95% | 98.9% | 101% | 101% | 91.1% | 98.9% | 99.9% | 93.3% | 89.5% | 84% | 97.7% | 97.8% | 99.5% | 104% | 86.8% | 0 | 0.9 | 0.1 | > 10 µM | > 10 µM | > 10 µM | 98.7% | 103% | 100% | 93.2% | 67.9% | 99.6% | 92.6% | 99.1% | 91.3% | 80% | 2.5 | 1.2 | > 10 µM
5 | NCC1(CC(=O)O)CCCCC1 [gabapentin] | 96% | 93.6% | 89.3% | 94.3% | 92.5% | 120% | 118% | 100% | 110% | 94.4% |  |  |  |  |  | 0 | 0 |  | > 10 µM | > 10 µM |  |  |  |  |  |  | 102% | 97.6% | 94.2% | 89.3% | 108% |  | 0 | > 10 µM
6 | Nc1ccn([C@@H]2O[C@H](CO)[C@@H](O)C2(F)F)c(=O)n1 [gemcitabine] | 102% | 102% | 62.3% | 59.4% | 61.4% | 97.5% | 106% | 86.5% | 63.9% | 40.8% | 97% | 105% | 72.9% | 67.8% | 74.1% | 11.9 | 8.2 | 8.6 |  | 0.529 µM |  | 100% | 89% | 72.5% | 66.2% | 72% | 99.5% | 71.2% | 38.3% | 38.9% | 40.3% | 9.9 | 23.1 | 0.0105 µM
